Laboratory results as given in patent publication US20080039513A1, “Marine Compounds with Calcium Channel Blocking Properties for the Treatment of Cognitive or Neurodegenerative Diseases” (priority 2004, published 2008).
Where two headings read alike, the source gives them in different places.

Columns and labels:
VDCC = VDCC blockade: intracellular Ca2+ (Fluo-4) in SH-SY5Y cells on depolarization with 60 mM KCl; type: cell-based, human
Experimental: SH-SY5Y cells were plated at 5×10^5 cells per well into Black/Clear Bottom 96-well culture plate, 48 hours before treatment. Cells were loaded with Fluo-4, 5 μM and pluronic acid, 0.1%, for 30 min at 37° C., 5% CO2, following a incubation of 15 min at RT in Krebs-HEPES solution. Immediately cells are exposed to the samples at different concentrations for 10 min. […] After the treatment, the fluorescence is measured in a Fluostar Optima plate reader (BMG) in response to depolarization with 60 mM KCl. The excitation wavelength was 485 nm, and that of emission 520 nm. […] Three compounds isolated from this extract have shown calcium channel blocking properties in SH-SY5Y neuroblastoma cells.

[1] = biological target: T1, AChE (from bovine erythrocytes) (Bos taurus, UniProt P23795); assay: AChE inhibition (Ellman colorimetric method); type: biochemical; settings: read-out: % inhibition AChE (concentration); for inhibition at 30 µM: 3 × 10^−5 M
T1 construct: AChE (Sigma Chemical Co. from bovine erythrocytes); purchased Sigma Chemical Co; host or cells: bovine erythrocytes
T1 sequence (P23795 31-614 isoform P23795-2 limits assumed): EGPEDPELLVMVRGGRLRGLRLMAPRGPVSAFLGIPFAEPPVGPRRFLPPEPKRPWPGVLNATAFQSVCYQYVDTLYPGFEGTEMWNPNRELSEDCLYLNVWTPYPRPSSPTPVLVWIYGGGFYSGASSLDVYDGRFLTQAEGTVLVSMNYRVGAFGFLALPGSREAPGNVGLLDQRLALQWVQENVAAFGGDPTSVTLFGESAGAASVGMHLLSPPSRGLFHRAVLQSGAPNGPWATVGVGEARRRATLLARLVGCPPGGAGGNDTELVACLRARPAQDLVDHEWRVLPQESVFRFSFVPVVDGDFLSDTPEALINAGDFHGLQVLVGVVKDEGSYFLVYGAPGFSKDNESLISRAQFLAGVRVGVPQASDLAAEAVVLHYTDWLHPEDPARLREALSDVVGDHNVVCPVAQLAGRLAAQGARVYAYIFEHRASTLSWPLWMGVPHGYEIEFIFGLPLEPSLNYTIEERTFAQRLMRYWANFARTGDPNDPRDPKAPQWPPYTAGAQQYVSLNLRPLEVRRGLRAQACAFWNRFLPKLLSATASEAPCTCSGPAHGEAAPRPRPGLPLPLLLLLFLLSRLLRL
Experimental: AChE inhibitory activity was evaluated at 30° C. by the colorimetric method reported by Ellman (Ellman, G. L. et al., 1961, Biochem Pharmacol, 7, 88-95). The assay solution consisted of 0.1 M phosphate buffer pH 8, 0.3 mM 5,5′-dithiobis (2-nitrobenzoic acid) (DTNB, Ellman's reagent), 0.02 units AChE (Sigma Chemical Co. from bovine erythrocytes), and 0.5 mM acetylthiocholine iodide as the substrate of the enzymatic reaction. The compounds tested were added to the assay solution and pre incubated with the enzyme for 5 min at 30° C. After that period, the substrate was added. The absorbance changes at 405 nm were recorded for 5 min with a microplate reader Digiscan 340T, the reaction rates were compared, and the percent inhibition due to the presence of test compounds was calculated. The reaction rate was calculated with, at least, triplicate measurements, and the percent inhibition due to the presence of test compound was calculated relative to the compound-free control.

BuChE from human serum = biological target: T2, BuChE from human serum (Homo sapiens, UniProt P06276); assay: BuChE inhibition (Ellman colorimetric method); type: biochemical
T2 construct: 0.01 units BuChE from human serum; from tissue; host or cells: human serum
T2 sequence (P06276 29-602): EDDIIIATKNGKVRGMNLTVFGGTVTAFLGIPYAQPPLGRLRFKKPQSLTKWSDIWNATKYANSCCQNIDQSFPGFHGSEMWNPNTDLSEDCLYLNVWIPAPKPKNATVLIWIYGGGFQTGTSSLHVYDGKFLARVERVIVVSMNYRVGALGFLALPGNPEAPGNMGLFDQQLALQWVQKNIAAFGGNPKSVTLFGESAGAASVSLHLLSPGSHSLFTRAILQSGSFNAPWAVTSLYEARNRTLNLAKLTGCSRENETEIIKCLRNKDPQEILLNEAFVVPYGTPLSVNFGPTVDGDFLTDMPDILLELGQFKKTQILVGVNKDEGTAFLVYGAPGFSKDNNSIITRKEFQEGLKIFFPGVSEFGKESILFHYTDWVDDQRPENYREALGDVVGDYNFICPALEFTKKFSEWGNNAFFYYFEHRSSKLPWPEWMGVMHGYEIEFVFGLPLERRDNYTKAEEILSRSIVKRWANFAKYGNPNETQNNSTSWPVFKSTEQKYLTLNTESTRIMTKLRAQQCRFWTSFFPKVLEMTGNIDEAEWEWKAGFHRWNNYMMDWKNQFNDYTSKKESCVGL
Experimental: BuChE inhibitory activity was evaluated at 30° C. by the colorimetric method reported by Ellman (Ellman, G. L. et al., 1961, Biochem Pharmacol, 7, 88-95). The assay solution consisted of 0.01 units BuChE from human serum, 0.1 M sodium phosphate buffer pH 8, 0.3 mM 5,5′-dithiobis (2-nitrobenzoic acid) (DTNB, Ellman's reagent), and 0.5 mM butyrylthiocholine iodide as the substrate of the enzymatic reaction. Enzyme activity was determined by measuring the absorbance at 405 nm during 5 minutes with a microplate reader Digiscan 340T. The tested compounds were preincubated with the enzyme for 10 minutes at 30° C. The reaction rate was calculated with, at least, triplicate measurements.

[2] = test system: human neuroblastoma cell line SH-SY5Y; type: cell-based; settings: for Toxicity (in words): at 10 μM
Experimental: The cytotoxicity effect of the molecules was tested in the human neuroblastoma cell line SH-SY5Y. These cells were cultured in 96-well plates in minimum essential medium, Ham's F12 medium, supplemented with 10% fetal bovine serum, 1% glutamine and 1% penicillin/streptomycin, and grown in a 5% CO2 humidified incubator at 37° C. Cells were plated at 10^4 cells for each well, at least, 48 hours before treatment. Cells were exposed for 24 hours to the compounds at different concentrations (from 10^−5 to 10^−9), quantitative assessment of cell death was made by measurement of the intracellular enzyme lactate dehydrogenase (LDH) (citotoxicity detection kit, Roche). The quantity of LDH was measured was evaluated in a microplate reader Anthos 2010, at 492 and 620 nm. Controls were taken as 100% viability.

AChE peripheral site = biological target: T3, AChE peripheral site (Bos taurus, UniProt P23795); assay: Propidium competition (fluorescence); type: binding; settings: 30 μM compound; 5 μM AChE, 20 μM propidium iodide
T3 sequence (P23795 31-613): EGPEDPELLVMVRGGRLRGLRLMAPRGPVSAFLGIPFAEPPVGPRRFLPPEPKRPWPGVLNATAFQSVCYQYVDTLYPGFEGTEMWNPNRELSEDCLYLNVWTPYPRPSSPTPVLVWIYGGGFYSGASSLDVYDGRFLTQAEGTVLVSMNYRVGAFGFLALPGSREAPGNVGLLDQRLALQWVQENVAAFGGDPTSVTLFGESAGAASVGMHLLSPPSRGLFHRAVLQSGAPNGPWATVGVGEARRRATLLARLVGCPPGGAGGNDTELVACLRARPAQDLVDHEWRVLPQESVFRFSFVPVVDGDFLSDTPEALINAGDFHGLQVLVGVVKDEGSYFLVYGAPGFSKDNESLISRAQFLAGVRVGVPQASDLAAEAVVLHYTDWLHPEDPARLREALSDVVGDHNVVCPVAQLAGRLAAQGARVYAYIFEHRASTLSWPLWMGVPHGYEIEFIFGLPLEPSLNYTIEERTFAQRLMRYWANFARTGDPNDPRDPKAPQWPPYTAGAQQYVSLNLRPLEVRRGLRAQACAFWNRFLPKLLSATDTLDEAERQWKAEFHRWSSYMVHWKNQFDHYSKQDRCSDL
Experimental: Fluorescence was measured in a Fluostar Optima plate reader (BMG). Measurements were carried out in 100 μl solution volume, in 96-well plates. The buffer used was 1 mM Tris/HCl, pH 8.0. 5 μM AChE was incubated, at least 6 hours, with the molecule at different concentrations. 20 μM propidium iodide was added 10 min before fluorescence measurement. The excitation wavelength was 485 mn and that of emission 620 nm.

[3] = SH-SY5Y, 24 hours exposure, LDH

SMILES	inhibition at 30 µM [1] [%]	inhibition at 30 µM (BuChE from human serum) [%]	Toxicity [2, 3] [µM]	% inhibition VDCC (concentration) (VDCC; 1.8 × 10^−5 M) [%]	% inhibition VDCC (concentration) (VDCC; 10^−5 M) [%]	Toxicity (in words) [2, 3]	also measured
COC1=C(Br)[C@@H]2OC(=O)C[C@]2(O)C=C1Br [Compound 1, Aeroplysinin-2]	7 ± 1	0	0.6	–	–	–	% inhibition VDCC (concentration) (VDCC; concentration not given): 0%
COC1=C(Br)[C@H](O)[C@](O)(CC#N)C=C1Br [Compound 2, Aeroplysinin-1]	19 ± 3	0	6	–	–	–	% inhibition VDCC (concentration) (VDCC; concentration not given): 0%
COC1=C(Br)[C@H](O)[C@@]2(C=C1Br)CC(C(=O)NCCCCNC(=O)C1=NO[C@]3(C=C(Br)C(OC)=C(Br)[C@@H]3O)C1)=NO2 [Compound 3, Aerothionin]	12 ± 1	13 ± 1	–	75 ± 17	–	–	Toxicity ([2]; human, 24 h): 18 µM
COC1=C(Br)[C@H](O)[C@@]2(C=C1Br)CC(C(=O)NCCCCCNC(=O)C1=NO[C@]3(C=C(Br)C(OC)=C(Br)[C@@H]3O)C1)=NO2 [Compound 4, Homoaerothionin]	9 ± 4	10 ± 1	6	95 ± 4	–	–	Propidium competition (30 μM) (AChE peripheral site): YES
COC1=C(Br)[C@@H](O)[C@]2(C=C1Br)CC(C(=O)NCCc1cc(Br)c(OCCCNC(=O)C3=NO[C@]4(C=C(Br)C(OC)=C(Br)[C@@H]4O)C3)c(Br)c1)=NO2 [Compound 5, 11,19-dideoxyfistularin]	63 ± 3	57 ± 7	>100	34 ± 14	–	–	Propidium competition (30 μM) (AChE peripheral site): YES
COC1=C(Br)[C@@H](O)[C@]2(C=C1Br)CC(C(=O)NCCc1cnc[nH]1)=NO2 [Compound 6]	–	–	–	–	18 ± 10	Not toxic	inhibition at 100 µM ([1]; 10^−4 M): 0%
COC1=C(Br)[C@@H](O)[C@]2(C=C1Br)CC(C(=O)NCCCOc1c(Br)cc(CCN)cc1Br)=NO2 [Compound 7]	–	–	–	–	67 ± 14.5	Not toxic	inhibition at 100 µM ([1]; 10^−4 M): 9.5 ± 3%; inhibition at 10 µM ([1]; 10^−5 M): 5 ± 3%
COC1=C(Br)[C@@H](O)[C@]2(C=C1Br)CC(C(=O)NCCCOc1c(Br)cc(C/C(=N\O)C(=O)NCCc3cnc[nH]3)cc1Br)=NO2 [Compound 8]	–	–	–	–	96 ± 3	Not toxic	% inhibition VDCC (concentration) (VDCC; 10^−6 M): 48%; % inhibition VDCC (concentration) (VDCC; 10^−7 M): 9%; inhibition at 100 µM [1]: 0%
